Data reported in patent publication US20080045564A1 (priority 2006, published 2008).

Key:
human CYP1A1 = conditions: due to increased mRNA expression levels; Bapiro et al.; cited from earlier work

Row | SMILES | induction of CYP2B6 by reference inducer (CYP2B6; 1 mM Phenobarbital, each hepatocyte donor) | induction of CYP2B6 activity (statistical significance, summary over three donors) (CYP2B6; hepatocytes) | induction of human CYP1A1 activity (human CYP1A1)
1 | CCC1(c2ccccc2)C(=O)NC(=O)NC1=O [Phenobarbital] | statistically significant amount of induction |  | 
2 | C=C[C@H]1C[N@@]2CC[C@H]1C[C@H]2[C@H](O)c1ccnc2ccc(OC)cc12 [quinine, cinchonan-9-ol, 6′-methoxy-, (8a,9R)-] |  | an inducer | induced
